Consider 41 compounds from ChEMBL document CHEMBL3046787, “Molecular modeling studies of some substituted chalcone derivatives as cysteine protease inhibitors” (Med Chem Res, 2012).

In the assay the test system is Plasmodium falciparum. Description: Inhibition of Plasmodium falciparum W2. Conditions: for pIC50: read-out: IC50; for IC50: read-out: pIC50 (converted).

pIC50: −log10 of the molar value.

Regarding `COc1ccc(C(=O)/C=C/c2ccc(F)cc2F)c(OC)c1`, the pIC50 was 4.95 and the IC50 is 11.1 µM.

Consider `COc1ccc(C(=O)/C=C/c2ccc(Cl)cc2Cl)c(OC)c1`, for which the pIC50 was 5.42 and the IC50 was 3.8 µM.

In the case of `COc1ccc(/C=C/C(=O)c2ccccn2)cc1`, the pIC50 was 4.92 and the IC50 was 12 µM.

For the compound `COc1ccc(/C=C/C(=O)c2ccc(F)cc2F)c(OC)c1`, the pIC50 was 5.72 and the IC50 is 1.9 µM.

As to `COc1ccc(/C=C/C(=O)c2ccc(Cl)cc2Cl)c(OC)c1`, the pIC50 was 6.05 and the IC50 is 0.899 µM.

On to `COc1ccc(OC)c(/C=C/C(=O)c2ccc3ccccc3c2)c1`, for which the pIC50 is 5.30 and the IC50 was 5 µM.

Turning to `COc1cccc(OC)c1/C=C/C(=O)c1ccc2ccccc2c1`, the pIC50 is 5.48 and the IC50 is 3.3 µM.

For `COc1cc(/C=C/C(=O)c2cccc3ccccc23)cc(OC)c1OC`, the pIC50 was 5.32 and the IC50 was 4.8 µM.

Take `COc1cc(/C=C/C(=O)c2ccc3ccccc3c2)cc(OC)c1OC`: the pIC50 is 5.22 and the IC50 is 6 µM.

`COc1ccc(/C=C/C(=O)c2ccc3ccccc3c2)cc1OC`: the pIC50 was 5.11 and the IC50 is 7.69 µM.

For the compound `COc1ccc(/C=C/C(=O)c2ccc(Cl)cc2Cl)c(OC)c1OC`, the pIC50 was 6.44 and the IC50 is 0.36 µM.

In the case of `COc1ccc(/C=C/C(=O)c2cc3ccccc3nc2Cl)cc1OC`, the pIC50 was 6.29 and the IC50 was 0.511 µM.

On to `O=C(/C=C/c1cccnc1)c1cc2ccccc2nc1Cl`, for which the pIC50 is 6.15 and the IC50 is 0.71 µM.

Consider `COc1ccc(OC)c(/C=C/C(=O)c2ccc(Cl)cc2Cl)c1`, for which the pIC50 is 6.12 and the IC50 is 0.75 µM.

Regarding `COc1cccc(OC)c1/C=C/C(=O)c1ccc(Cl)cc1`, the pIC50 is 6.11 and the IC50 is 0.769 µM.

`O=C(/C=C/c1ccc(Cl)c(Cl)c1)c1ccnc2ccccc12`: the pIC50 is 6.10 and the IC50 was 0.8 µM.

Turning to `COc1ccc(/C=C/C(=O)c2cc3ccccc3nc2Cl)c(OC)c1`, the pIC50 was 6.00 and the IC50 was 1 µM.

As to `O=C(/C=C/c1ccc(F)cc1F)c1cc2ccccc2nc1Cl`, the pIC50 is 6.00 and the IC50 is 1 µM.

Consider `COc1ccc(OC)c(/C=C/C(=O)c2cccc(Cl)c2Cl)c1`, for which the pIC50 was 6.04 and the IC50 was 0.92 µM.

Take `COc1ccc(/C=C/C(=O)c2cccc(Cl)c2Cl)cc1OC`: the pIC50 was 5.94 and the IC50 was 1.14 µM.

On to `COc1ccc(/C=C/C(=O)c2cccc(Cl)c2Cl)c(OC)c1`, for which the pIC50 was 5.86 and the IC50 is 1.38 µM.

In the case of `COc1ccc(/C=C/C(=O)c2ccc(F)c(F)c2)c(OC)c1`, the pIC50 is 5.68 and the IC50 is 2.09 µM.

As to `COc1ccc(/C=C/C(=O)c2cccc3ccccc23)cc1OC`, the pIC50 is 5.30 and the IC50 is 5 µM.

With `COc1cc(/C=C/C(=O)c2cccc3ccccc23)cc(OC)c1`, the pIC50 was 5.37 and the IC50 was 4.3 µM.

For the compound `COc1cc(/C=C/C(=O)c2ccc3ccccc3c2)cc(OC)c1`, the pIC50 is 5.02 and the IC50 is 9.51 µM.

Take `COc1ccc(/C=C/C(=O)c2cccc3ccccc23)c(OC)c1OC`: the pIC50 was 5.24 and the IC50 is 5.79 µM.

For the compound `COc1ccc(/C=C/C(=O)c2cccnc2)cc1`, the pIC50 is 5.00 and the IC50 is 10 µM.

Regarding `COc1ccc(/C=C/C(=O)c2ccncc2)cc1`, the pIC50 was 4.92 and the IC50 was 12 µM.

Consider `COc1ccc(/C=C/C(=O)c2ccccn2)c(OC)c1`, for which the pIC50 was 5.77 and the IC50 was 1.7 µM.

For `COc1ccc(/C=C/C(=O)c2cccnc2)c(OC)c1`, the pIC50 was 5.57 and the IC50 is 2.7 µM.

Take `COc1ccc(OC)c(/C=C/C(=O)c2ccccn2)c1`: the pIC50 was 5.85 and the IC50 was 1.4 µM.

`COc1ccc(/C=C/C(=O)c2ccccn2)c(OC)c1OC`: the pIC50 was 5.64 and the IC50 was 2.3 µM.

Regarding `COc1ccc(/C=C/C(=O)c2cccnc2)c(OC)c1OC`, the pIC50 was 5.41 and the IC50 was 3.9 µM.

Consider `COc1ccc(/C=C/C(=O)c2ccncc2)c(OC)c1OC`, for which the pIC50 is 5.49 and the IC50 is 3.2 µM.

Take `O=C(/C=C/c1cc(Cl)ccc1Cl)c1ccnc2ccccc12`: the pIC50 was 6.64 and the IC50 is 0.23 µM.

`COc1ccc(/C=C/C(=O)c2cccc3ccccc23)cc1`: the pIC50 is 5.00 and the IC50 was 10 µM.

Turning to `COc1ccc(/C=C/C(=O)c2cccc3ccccc23)c(OC)c1`, the pIC50 is 5.34 and the IC50 was 4.6 µM.

With `COc1ccc(OC)c(/C=C/C(=O)c2cccc3ccccc23)c1`, the pIC50 is 5.55 and the IC50 is 2.8 µM.

`COc1cccc(OC)c1/C=C/C(=O)c1cccc2ccccc12`: the negative-log IC50 (pIC50) is 5.51 and the IC50 is 3.1 µM.

In the case of `O=C(/C=C/c1ccc(-n2ccnc2)cc1)c1ccc(Cl)cc1Cl`, the pIC50 is 5.93 and the IC50 is 1.18 µM.

Take `COc1ccc(/C=C/C(=O)c2ccc(C(F)(F)F)cc2)c(OC)c1`: the pIC50 was 6.12 and the IC50 was 0.75 µM.
